{"source": "paper PMC5589648", "about": "“Acetyl-lupeolic acid inhibits Akt signaling and induces apoptosis in chemoresistant prostate cancer cells in vitro and in vivo” (Oncotarget, 2017)", "key": {"Akt3": {"molecular_target": "T1, Akt3 (Homo sapiens, UniProt Q9Y243)", "T1 construct": "active recombinant human Akt3", "T1 sequence (Q9Y243 2-479)": "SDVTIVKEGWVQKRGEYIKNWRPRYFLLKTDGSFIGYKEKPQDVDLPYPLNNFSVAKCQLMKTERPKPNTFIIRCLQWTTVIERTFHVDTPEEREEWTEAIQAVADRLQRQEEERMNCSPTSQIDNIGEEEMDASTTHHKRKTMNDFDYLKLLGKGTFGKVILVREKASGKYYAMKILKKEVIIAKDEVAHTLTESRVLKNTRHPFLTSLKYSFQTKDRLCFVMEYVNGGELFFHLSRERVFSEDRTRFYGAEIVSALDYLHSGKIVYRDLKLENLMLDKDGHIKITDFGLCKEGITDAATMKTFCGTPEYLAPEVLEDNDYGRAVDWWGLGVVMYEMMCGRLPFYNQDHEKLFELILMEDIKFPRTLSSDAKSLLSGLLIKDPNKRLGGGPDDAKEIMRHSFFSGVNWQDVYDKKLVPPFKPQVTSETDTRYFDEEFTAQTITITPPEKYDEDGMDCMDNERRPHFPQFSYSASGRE", "experiment": "in vitro kinase assay, [γ-32P]ATP, GST-GSK-3β substrate", "type": "biochemical"}, "Akt1": {"molecular_target": "T2, Akt1 (Homo sapiens, UniProt P31749)", "T2 construct": "active recombinant human Akt1", "T2 sequence (P31749 whole entry)": "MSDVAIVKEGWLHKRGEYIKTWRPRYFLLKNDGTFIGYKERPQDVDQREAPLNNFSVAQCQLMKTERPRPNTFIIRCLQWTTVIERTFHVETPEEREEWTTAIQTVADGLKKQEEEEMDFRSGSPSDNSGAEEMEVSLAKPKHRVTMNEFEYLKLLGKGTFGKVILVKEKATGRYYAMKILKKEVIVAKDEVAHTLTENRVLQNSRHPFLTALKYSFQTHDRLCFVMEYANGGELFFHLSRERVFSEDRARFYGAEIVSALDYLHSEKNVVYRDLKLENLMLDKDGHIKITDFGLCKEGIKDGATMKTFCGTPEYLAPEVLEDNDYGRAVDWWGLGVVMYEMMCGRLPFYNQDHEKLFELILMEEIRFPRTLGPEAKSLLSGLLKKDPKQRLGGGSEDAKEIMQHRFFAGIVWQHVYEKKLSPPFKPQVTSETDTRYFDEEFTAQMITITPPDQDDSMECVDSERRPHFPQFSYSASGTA", "experiment": "in vitro kinase assay, [γ-32P]ATP, GST-GSK-3β substrate", "type": "biochemical"}}, "data": [{"compound": "C=C(C)[C@@H]1CC[C@]2(C)CC[C@]3(C)[C@H](CC[C@@H]4[C@@]5(C)CC[C@H](O)C(C)(C)[C@@H]5CC[C@]43C)[C@@H]12", "note": "[lupeol]", "values": [{"measurement": "in vitro kinase assay, [γ-32P]ATP, GST-GSK-3β substrate", "setting": "Akt3", "result": "Compared to ac-LA, lupeol was about threefold less potent in the inhibition of Akt1 and Akt3 isoforms"}, {"measurement": "in vitro kinase assay, [γ-32P]ATP, GST-GSK-3β substrate", "setting": "Akt1", "result": "Compared to ac-LA, lupeol was about threefold less potent in the inhibition of Akt1 and Akt3 isoforms"}]}]}
